From patent publication US12583825B2, “Benzo[h]quinazolin-4-amine and thieno[3,2-h]quinazolin-4-amine derivatives for the treatment of cancer” (Redona Therapeutics, Inc., priority 2020, dated 2026) come the findings set out here.

Data set [1] concerns phospho-SRSF6 levels in MDA-MB-468 cells. As to the kind of experiment: Inhibition of phospho-SRSF6 levels in MDA-MB-468 cells (Western blot). Type of data set: cell-based. The note with it: Homo sapiens, 100 nM, 2 hours, normalized by GAPDH, read-out: % Intensity of p-SRSF6 signal at 100 nM compared to DMSO control. Here is the method: FIG. 1: FIG. 1 provides a representative Western blot showing reduction of phosphorylated-SRSF6 (P-SRSF6) in MDA-MB 468 cells by compounds of the invention. GAPDH was probed for by Western blotting to control for equal protein loading and for normalization of samples. The numbers below the blots show percent intensity of P-SRSF6 signal at 100 nM compared to DMSO control.
Assessment of Inhibition of Phospho-SRSF6 Levels in MDA-MB-468 Cells
MDA-MB-468 cells (ATCC, HTB-132) were cultured in DMEM (BioConcept cat. no. 1-26F03) supplemented with 10% FBS (Sigma cat. no. F9665), 1% Na-pyruvate (Sigma cat. no. S8636), 1% Penicillin-Streptomycin (BioConcept cat. no. 4-01F00-H). When cells reached a density of 70% in 6-well plates (TPP cat. no. 92006), they were treated either with the test compound vehicle DMSO, or with experimental compounds at a final concentration of 100 nM for 2 hours. Thereafter, the culture medium was removed and cells were collected by scraping in Lysis Buffer (20 mM Tris HCl pH7.5, 150 mM NaCl, 1 mM EGTA, 1 mM EDTA, 1% Triton and 1% NP-40) containing protease and phosphatase inhibitors (Halt™ Protease&Phosphatase inhibitor cocktail 100× ThermoScientific cat. no. 1861281) and 1 mM PMSF (Fluka cat. no. 93482). Cleared lysates were stored in Eppendorf tubes at −80° C. until use, and protein concentration in lysates was determined using Pierce 660 nm Protein Assay Reagent (ThermoScientific cat. no. 22660). 20 μg proteins were diluted in 4× Laemmli buffer (Biorad cat. no. 161-0747) containing 10% beta-mercaptoethanol, separated by SDS-PAGE using 10% gels, and then transferred to PVDF membranes (Trans Blot Turbo Transfer Pack BioRad cat. no. 1704156) by Trans-Blot® Turbo™ System semidry blotting methodology (BioRad). Primary antibodies were incubated in TBS-0.1% Tween-20 buffer containing 3% BSA Bovine Albumin Fr.V (Millipore cat. no. 81-053-3) overnight at 4° C. The following primary antibodies were used: Mouse anti-phosphoepitope SR proteins clone 1H4 (Millipore cat. no. MABE50) diluted 1:5000, and rabbit anti-GAPDH clone 14C10 (Cell Signaling cat. no. 2118S) to control for equal protein loading, diluted 1:2000. HRP-conjugated secondary antibodies were incubated one hour at room temperature diluted 1:5000 in TBS-0.1% Tween-20 buffer containing 5% nonfat-dried bovine milk (Sigma cat. no. M7409). The following secondary antibodies were used: Goat anti-mouse-HRP (Jackson cat. no. 115-035-146) and goat anti-rabbit-HRP (Jackson cat. no. 111-035-144). Membranes were incubated with ECL Prime Western Blot Detection Reagent (Amersham cat. no. RPN2236) to detect specific signals using Fusion SOLO S device (Vilber Lourmat). Pixel intensity of the phopsho-SRSF6 (MW 55 kDa in reference to markers) and GAPDH (MW 37 kDa) signals in the Western blots were determined using Evolution-Capt image analysis software (v17.01, Vilber Lourmat). DMSO control was used to set the phospho-SRSF6 signal at baseline, phospho-SRSF6 signals for each sample were normalized by the respective GAPDH signals and percent intensity of P-SRSF6 signal at 100 nM compound compared to DMSO control was calculated (see FIG. 1).

The target of a further data set is T1, recombinant human CLK3 (Homo sapiens, UniProt P49761).
T1 construct: purchased Thermo Fisher Scientific PV3826
T1 sequence (P49761 whole entry): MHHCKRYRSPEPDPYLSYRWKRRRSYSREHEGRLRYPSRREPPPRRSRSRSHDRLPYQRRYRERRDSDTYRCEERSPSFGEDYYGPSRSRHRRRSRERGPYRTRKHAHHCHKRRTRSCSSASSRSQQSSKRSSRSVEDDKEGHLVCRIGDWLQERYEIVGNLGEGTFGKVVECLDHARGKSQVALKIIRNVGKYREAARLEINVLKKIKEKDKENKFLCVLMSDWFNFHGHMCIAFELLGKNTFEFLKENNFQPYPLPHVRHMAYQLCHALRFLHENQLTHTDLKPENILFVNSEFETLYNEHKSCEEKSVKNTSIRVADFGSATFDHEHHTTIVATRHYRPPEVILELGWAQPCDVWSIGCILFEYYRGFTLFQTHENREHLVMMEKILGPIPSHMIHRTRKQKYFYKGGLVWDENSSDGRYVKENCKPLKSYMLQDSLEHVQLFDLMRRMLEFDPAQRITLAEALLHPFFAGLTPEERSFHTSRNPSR
As to the kind of experiment: CLK3 kinase assay (LANCE Ultra). The data set is classed as biochemical. The following applies: 0.5 nM CLK3, 300 μM ATP, 3 hours at 30° C. In short, it runs like this:
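TR-FRET (LANCE Ultra) read-out of phospho-CREBtide after a 3 h, 30 °C reaction containing 300 μM ATP, 50 nM ULight-CREBtide and 0.5 nM recombinant human CLK3, compounds in 1% DMSO.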

Another data set concerns MDA-MB-231 cells. The experiment in a line: MDA-MB-231 proliferation assay. Type of data set: cell-based. The note with it: Homo sapiens, 72 hours, YO-PRO-1 readout. A digest of the protocol: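 Cells seeded at 750/well in DMEM with 10% FBS, treated 72 h at 37 °C, 0.5% DMSO final. Cell number read by YO-PRO-1 fluorescence (485/530 nm), normalised to DMSO (100%) and time-of-addition cells (0%); 4-parameter logistic fit with maximum fixed at 100%.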

For data set [2], the system named is CAL-51 triple-negative breast cancer xenograft. As to the kind of experiment: CAL-51 triple-negative breast cancer mouse xenograft model. The following applies: for tumor volumes smaller compared to the vehicle-treated group: day 21, female NCG mice; for tumor volumes compared with vehicle-treated animals (one-way ANOVA, P<0.05): day 21.
Method: A pair match was performed when tumors reached an average volume of 100-150 mm^3 to distribute animals into treatment groups (n=8/group), and treatment of the respective groups was initiated. Tumor volumes (expressed in mm^3) were measured twice weekly using a caliper on days 1, 3, 7, 10, 14, 17 and 21 of the treatment period.
To this end, the CAL-51 triple-negative breast cancer xenograft model was used, in which the tumor cells are injected subcutaneously into the flanks of immunodeficient NCG mice (lack functional/mature T, B, and NK cells, and have reduced macrophage and dendritic cell function). […] CAL-51 cells were harvested when they were growing exponentially.
Female NCG mice were used for the study at 8-12 weeks of age (Charles River Laboratories). Mice were inoculated subcutaneously in the flank region with 1×10^7 CAL-51 cells in 50% Matrigel™ in a final injection volume of 0.1 mL/mouse. Once tumors reached an average size of 100-150 mm^3, a pair match was carried out to distribute mice to the different treatment groups.
Tumor volumes (expressed in mm^3) were measured in two dimensions using a caliper on days 1, 3, 7, 10, 14, 17 and 21 of the treatment period. […] Results represent mean values±SEM. Tumor volumes at the conclusion of the study were analyzed by one-way ANOVA analysis to compare treatment groups to the vehicle group. The significance level was set to P<0.05. Calculations were conducted using GraphPad™ Prism version 9.

“Also recorded” adds a separate entry of the source.

As to `COCCO/N=C1\c2cc(O[C@H]3CC[C@H](N)CC3)ccc2-c2ncnc(N)c2C1(C)C` [Example 29, (6Z)-8-(trans-4-aminocyclohexoxy)-6-(2-methoxyethoxyimino)-5,5-dimethyl-benzo[h]quinazolin-4-amine], the activity at 0.1 µM in data set [1] was found to be 12%. In addition, the IC50 (usually the concentration that inhibits the measured activity by half) on recombinant human CLK3 is 15.4 nM. For the same compound, the GI50 (commonly the concentration giving 50% growth inhibition) with MDA-MB-231 cells amounted to 378 nM. Further, the “tumor volumes smaller compared to the vehicle-treated group” value in data set [2] (25 mg/kg daily orally) was 41.8%; in data set [2] (60 mg/kg three times a week orally) it was 42.7%; in data set [2] (85 mg/kg twice a week orally), 46.8%. The “tumor volumes compared with vehicle-treated animals (one-way ANOVA, P<0.05)” value in data set [2] (60 mg/kg thrice weekly) and in data set [2] (85 mg/kg twice weekly) was “significant; also recorded: significantly smaller” throughout. Besides, the “tolerability, as evidenced by body weight assessments” value in data set [2] (oral 25, 60 or 85 mg/kg schedules, days 1-21, female NCG mice) is recorded as “well tolerated”.
`CC1(C)/C(=N/OCCO)c2cc(O[C@H]3CC[C@H](N)CC3)ccc2-c2ncnc(N)c21` [Example 19, 2-[(Z)-[4-amino-8-(trans-4-aminocyclohexoxy)-5,5-dimethyl-benzo[h]quinazolin-6-ylidene]amino]oxyethanol]: the activity at 0.1 µM in data set [1] stood at 25%. For the same compound, the IC50 on recombinant human CLK3 is 20.2 nM. Also, the GI50 in the data set with MDA-MB-231 cells stood at 445 nM.
For the compound `CO/N=C1\c2cc(C[C@H]3CC[C@H](N)CC3)ccc2-c2ncnc(N)c2C1(C)C` [Example 74, (6Z)-8-[(trans-4-aminocyclohexyl)methyl]-6-methoxyimino-5,5-dimethyl-benzo[h]quinazolin-4-amine], the activity at 0.1 µM in data set [1] was 28%. The IC50 on recombinant human CLK3 came to 4.8 nM. Further, the GI50 in the data set with MDA-MB-231 cells was 255 nM.
As to `N#CCCO/N=C1\c2cc(O[C@H]3CC[C@H](N)CC3)ccc2-c2ncnc(N)c2C12CCCC2` [Example 102, 3-[(Z)-[4-amino-8-(trans-4-aminocyclohexoxy)spiro[benzo[h]quinazoline-5,1′-cyclopentane]-6-ylidene]amino]oxypropanenitrile], the activity at 0.1 µM in data set [1] is 7%. Besides, the IC50 at recombinant human CLK3 was determined as 2.9 nM. Besides, the GI50 in the data set on MDA-MB-231 cells was determined as 10.1 nM.
The corresponding values for `CC1(C)/C(=N/OC[C@@H]2CNC(=O)O2)c2cc(I)ccc2-c2ncnc(N)c21` [Example 93, (5S)-5-[[(Z)-(4-amino-8-iodo-5,5-dimethyl-benzo[h]quinazolin-6-ylidene)amino]oxymethyl]oxazolidin-2-one] are 19%, 6.2 nM and 240 nM.
Consider `CC1(C)/C(=N/OCCO)c2cc(O[C@H]3CC[C@@H](N)CC3)ccc2-c2ncnc(N)c21` [Example 87, 2-[(Z)-[4-amino-8-(cis-4-aminocyclohexoxy)-5,5-dimethyl-benzo[h]quinazolin-6-ylidene]amino]oxyethanol], for which the activity at 0.1 µM in data set [1] came to 10%. The IC50 on recombinant human CLK3 came to 18.7 nM. The GI50 with MDA-MB-231 cells came to 255 nM.
As to `CC1(C)/C(=N/OCCCC#N)c2cc(O[C@H]3CC[C@H](N)CC3)ccc2-c2ncnc(N)c21` [Example 27, 4-[(Z)-[4-amino-8-(trans-4-aminocyclohexoxy)-5,5-dimethyl-benzo[h]quinazolin-6-ylidene]amino]oxybutanenitrile], the activity at 0.1 µM in data set [1] was 26%. In addition, the IC50 on recombinant human CLK3 was 16.1 nM. The GI50 in the data set with MDA-MB-231 cells worked out at 269 nM.
Turning to `C[C@H](O)CO/N=C1\c2cc(O[C@H]3CC[C@H](N)CC3)ccc2-c2ncnc(N)c2C1(C)C` [Example 79, (2S)-1-[(Z)-[4-amino-8-(trans-4-aminocyclohexoxy)-5,5-dimethyl-benzo[h]quinazolin-6-ylidene]amino]oxypropan-2-ol], the activity at 0.1 µM in data set [1] came out at 34%. In addition, at recombinant human CLK3, the IC50 was found to be 40.7 nM. Besides, the GI50 in the data set with MDA-MB-231 cells was 971 nM.
The corresponding values for `CO/N=C1\c2cc(O[C@H]3CC[C@H](N)CC3)ccc2-c2ncnc(N)c2C1(C)C` [Example 1, (6Z)-8-(trans-4-aminocyclohexoxy)-6-methoxyimino-5,5-dimethyl-benzo[h]quinazolin-4-amine] are 19%, 9.1 nM and 407 nM.
